Assay results as given in the Kinase Knowledgebase extract (Sharma et al. 2016).

target: PIK3CG (human) (UniProt P48736); experiment: Inhibition of PIK3CG Kinase Activity
Sequence (P48736 whole entry, looked up): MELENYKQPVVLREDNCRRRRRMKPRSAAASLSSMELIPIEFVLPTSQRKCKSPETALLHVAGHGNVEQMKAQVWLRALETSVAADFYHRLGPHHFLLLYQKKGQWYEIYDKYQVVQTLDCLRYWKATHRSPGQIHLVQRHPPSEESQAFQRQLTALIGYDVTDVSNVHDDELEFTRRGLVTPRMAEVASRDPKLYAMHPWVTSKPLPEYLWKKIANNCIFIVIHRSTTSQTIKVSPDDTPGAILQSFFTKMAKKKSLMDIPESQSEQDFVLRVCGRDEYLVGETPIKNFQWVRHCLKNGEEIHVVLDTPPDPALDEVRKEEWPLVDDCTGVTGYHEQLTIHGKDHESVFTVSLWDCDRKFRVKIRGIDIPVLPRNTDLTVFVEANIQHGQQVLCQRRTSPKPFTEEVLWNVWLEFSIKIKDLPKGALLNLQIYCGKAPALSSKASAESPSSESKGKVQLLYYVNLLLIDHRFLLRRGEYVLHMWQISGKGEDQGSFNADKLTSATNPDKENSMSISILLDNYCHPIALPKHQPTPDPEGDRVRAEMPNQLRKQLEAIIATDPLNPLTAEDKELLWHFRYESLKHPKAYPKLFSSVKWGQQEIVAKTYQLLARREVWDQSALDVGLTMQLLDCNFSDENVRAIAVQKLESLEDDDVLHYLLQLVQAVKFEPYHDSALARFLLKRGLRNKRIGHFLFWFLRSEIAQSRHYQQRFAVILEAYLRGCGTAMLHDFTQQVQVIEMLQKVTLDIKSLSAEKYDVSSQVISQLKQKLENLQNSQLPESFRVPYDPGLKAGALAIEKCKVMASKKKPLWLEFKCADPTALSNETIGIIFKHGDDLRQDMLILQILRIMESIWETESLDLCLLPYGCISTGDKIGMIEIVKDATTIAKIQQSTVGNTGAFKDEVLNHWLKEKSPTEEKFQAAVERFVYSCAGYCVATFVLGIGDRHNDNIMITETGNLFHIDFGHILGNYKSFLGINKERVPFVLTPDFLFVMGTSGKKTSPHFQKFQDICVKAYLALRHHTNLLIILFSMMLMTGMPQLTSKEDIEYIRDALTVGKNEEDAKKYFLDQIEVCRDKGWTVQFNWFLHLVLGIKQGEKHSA

IC50, < 600 nM:
CC(=O)Nc1nc2c(s1)-c1c(c(C3CC3)nn1-c1ccc(C(=O)N[C@@H]3CCN(C4CCCC4)C3)c(Cl)c1)CC2, CC(=O)Nc1nc2c(s1)-c1c(c(C3CC3)nn1-c1ccc(C(=O)N(C)[C@@H]3CCN(C4CCCC4)C3)c(F)c1)CC2, CC(=O)Nc1nc2c(s1)-c1c(c(C3CC3)nn1-c1ccc(C(=O)N3CCC(N4CCCC4)CC3)c(C)c1)CC2, CC(=O)Nc1nc2c(s1)-c1c(c(C3CC3)nn1-c1ccc(C(=O)NC3CCN(CC4CCCCC4)CC3)c(C)c1)CC2, CC(=O)Nc1nc2c(s1)-c1c(c(C3CC3)nn1-c1ccc(C(=O)N[C@H]3CC[C@@H](N4CCCCC4)CC3)c(Cl)c1)CC2, CCCN1CC[C@@H](NC(=O)c2ccc(-n3nc(C4CC4)c4c3-c3sc(NC(C)=O)nc3CC4)c(Cl)c2)C1, CC(=O)Nc1nc2c(s1)-c1c(c(C3CC3)nn1-c1ccc(C(=O)NC3CCN(C4CCCCC4)CC3)c(F)c1)CC2, CC(=O)Nc1nc2c(s1)-c1c(c(C3CC3)nn1C1CCC(C(=O)NC3CCN(C4CCCC4)CC3)CC1)CC2 (centres undefined), CC(=O)Nc1nc2c(s1)-c1c(c(C3CC3)nn1-c1ccc(C(=O)NC3CCN(C4CCOCC4)CC3)cc1Cl)CC2, CC(=O)Nc1nc2c(s1)-c1c(c(C3CC3)nn1-c1ccc(C(=O)N[C@@H]3CCN(C4CCCC4)C3)cc1F)CC2, CC(=O)Nc1nc2c(s1)-c1c(c(C3CC3)nn1-c1ccc(C(=O)N(C)[C@H]3CC[C@@H](N(C)CC4CC4)CC3)cc1F)CC2, CC(=O)Nc1nc2c(s1)-c1c(c(C3CC3)nn1C1CCC(C(=O)NC3CCN(CC4CCCC4)CC3)CC1)CC2 (centres undefined), CC(=O)Nc1nc2c(s1)-c1c(c(C3CC3)nn1-c1ccc(C(=O)N(C)C3CCN(C)CC3)cc1Cl)CC2, CC(=O)Nc1nc2c(s1)-c1c(c(C3CC3)nn1-c1ccc(C(=O)N[C@H]3CC[C@@H](N4CCOCC4)CC3)cc1F)CC2, CC(=O)Nc1nc2c(s1)-c1c(c(C3CC3)nn1C1CCN(C(=O)C3CCCCC3)CC1)CC2, CC(=O)Nc1nc2c(s1)-c1c(c(C3CCC3)nn1-c1ccc(C(=O)NC3CCN(CC4CCCC4)CC3)cc1Cl)CC2, CC(=O)Nc1nc2c(s1)-c1c(c(C3CC3)nn1-c1ccc(C(=O)N(C)CC3CCN(C4CCCC4)CC3)cc1Cl)CC2, CC(=O)Nc1nc2c(s1)-c1c(c(C3CC3)nn1-c1ccc(C(=O)N(C)[C@H]3CC[C@@H](N4CCCCC4)CC3)c(Cl)c1)CC2, CC(=O)Nc1nc2c(s1)-c1c(c(C3CC3)nn1-c1ccc(C(=O)NC3CCN(C4CCOCC4)CC3)c(C)c1)CC2, CC(=O)Nc1nc2c(s1)-c1c(c(C3CC3)nn1-c1ccc(C(=O)NC[C@@H]3CCN(C4CCCC4)C3)c(Cl)c1)CC2, CC(=O)Nc1nc2c(s1)-c1c(c(C3CC3)nn1-c1ccc(C(=O)N[C@H]3CC[C@@H](N(C)CC4CCCC4)CC3)c(Cl)c1)CC2, CCCN1CCC(NC(=O)c2ccc(-n3nc(C4CC4)c4c3-c3sc(NC(C)=O)nc3CC4)cc2C)CC1, CC(=O)Nc1nc2c(s1)-c1c(c(C3CCC3)nn1-c1ccc(C(=O)N[C@H]3CC[C@@H](N4CCCC4)CC3)cc1Cl)CC2, CCN(C(=O)c1ccc(-n2nc(C3CC3)c3c2-c2sc(NC(C)=O)nc2CC3)cc1F)[C@H]1CC[C@@H](N2CCCC2)CC1, CC(=O)Nc1nc2c(s1)-c1c(c(C3CC3)nn1-c1ccc(C(=O)N(C)[C@H]3CC[C@@H](N4CCCC4)CC3)cc1C)CC2, CCCN1CCC(C(=O)N(C)c2ccc(-n3nc(C4CC4)c4c3-c3sc(NC(C)=O)nc3CC4)c(Cl)c2)CC1, CC(=O)Nc1nc2c(s1)-c1c(c(C3CC3)nn1-c1ccc(C(=O)N[C@@H]3CCN(CC4CCCC4)C3)c(C)c1)CC2, CCCCN1CCN(C(=O)N2CCC(n3nc(C4CC4)c4c3-c3sc(NC(C)=O)nc3CC4)CC2)CC1, CC(=O)Nc1nc2c(s1)-c1c(c(C3CC3)nn1-c1ccc(NCC3CCN(C4CCCC4)CC3)cc1Cl)CC2, CC(=O)Nc1nc2c(s1)-c1c(c(C3CCC3)nn1-c1ccc(C(=O)NC3CCN(C4CCOCC4)CC3)cc1Cl)CC2, CC(=O)Nc1nc2c(s1)-c1c(c(C3CC3)nn1-c1ccc(C(N)=O)cc1Cl)CC2, CC(=O)Nc1nc2c(s1)-c1c(c(C3CC3)nn1-c1ccc(C(=O)N[C@H]3CC[C@@H](N(C)CC4CC4)CC3)cc1F)CC2, CC(=O)Nc1nc2c(s1)-c1c(c(C3CC3)nn1-c1ccc(C(=O)N[C@H]3CC[C@@H](N4CCCC4)CC3)cc1Cl)CC2, CC(=O)Nc1nc2c(s1)-c1c(c(C3CC3)nn1-c1ccc(CC(=O)NC3CCCCC3)cc1Cl)CC2, CC(=O)Nc1nc2c(s1)-c1c(c(C3CC3)nn1-c1ccc(C(=O)NC3CCN(CC4CCCC4)CC3)c(C)c1)CC2, CC(=O)Nc1nc2c(s1)-c1c(c(C3(C)CC3)nn1-c1ccc(C(=O)NC3CCN(C(C)C)CC3)cc1Cl)CC2, CC(=O)Nc1nc2c(s1)-c1c(c(C3CCCC3)nn1-c1ccc(C(=O)N[C@H]3CC[C@@H](N4CCCC4)CC3)cc1Cl)CC2, CC(=O)Nc1nc2c(s1)-c1c(c(C3CC3)nn1-c1ccc(NCC3CCNCC3)cc1Cl)CC2, CC(=O)Nc1nc2c(s1)-c1c(c(C3CC3)nn1-c1ccc(C(=O)NC3CCN(C4CCCC4)CC3)c(F)c1)CC2, CC(=O)Nc1nc2c(s1)-c1c(c(C3CC3)nn1-c1ccc(C(=O)NCC3CCN(CC4CCCC4)CC3)c(Cl)c1)CC2, CCCN1CC[C@@H](NC(=O)c2ccc(-n3nc(C4CC4)c4c3-c3sc(NC(C)=O)nc3CC4)c(F)c2)C1, CC(=O)Nc1nc2c(s1)-c1c(c(C3CC3)nn1-c1ccc(C(=O)NC[C@@H]3CCNC3)c(Cl)c1)CC2, CC(=O)Nc1nc2c(s1)-c1c(c(C3CC3)nn1C1CCC(C(=O)NC3CCCCC3)CC1)CC2 (centres undefined), CC(=O)Nc1nc2c(s1)-c1c(c(C3CC3)nn1-c1ccc(C(=O)NC[C@H]3CCNC3)c(Cl)c1)CC2, CC(=O)Nc1nc2c(s1)-c1c(c(C3CC3)nn1-c1ccc(C(=O)N[C@H]3CCN(CC4CCCC4)C3)cc1F)CC2, CC(=O)Nc1nc2c(s1)-c1c(c(C3CC3)nn1-c1ccc(C(=O)NCc3ccncc3)cc1Cl)CC2, CC(=O)Nc1nc2c(s1)-c1c(c(C3CC3)nn1-c1ccc(C(=O)N(C)C[C@H]3CCN(C4CCCC4)C3)c(Cl)c1)CC2, CC(=O)Nc1nc2c(s1)-c1c(c(C3CC3)nn1-c1ccc(C(=O)N(C)C3CCN(C4CCCC4)CC3)c(C)c1)CC2, CC(=O)Nc1nc2c(s1)-c1c(c(C3CCCC3)nn1-c1ccc(C(=O)NC3CCN(C4CCCC4)CC3)cc1Cl)CC2, CC(=O)Nc1nc2c(s1)-c1c(c(C3CC3)nn1C1CCC(C(N)=O)CC1)CC2 (centres undefined), CC(=O)Nc1nc2c(s1)-c1c(c(C3CC3)nn1-c1ccc(C(=O)N[C@@H]3CCN(C4CCCCC4)C3)c(Cl)c1)CC2, CC(=O)Nc1nc2c(s1)-c1c(c(C3CC3)nn1-c1ccc(C(=O)N[C@H]3CC[C@@H](N(C)CC4CC4)CC3)cc1C)CC2, CC(=O)Nc1nc2c(s1)-c1c(c(C3CC3)nn1-c1ccc(C(=O)NCC3CCN(CC4CCCC4)CC3)cc1Cl)CC2, CC(=O)Nc1nc2c(s1)-c1c(c(C3CC3)nn1-c1ccc(C(=O)N(C)[C@H]3CC[C@@H](N4CCCC4)CC3)c(C)c1)CC2
